One assay has as its system MALAT1. Briefly: Real-time RT-PCR of MALAT1 RNA expression in BE(2)-C cells. The settings on record: 67μM DMOG, 48 hours, vs vehicle control. The class given is cell-based, human. From the text:
Gene expression in tumor cells was examined by quantitative real-time RT-PCR as described previously. For the analysis of protein expression by immunoblot, cells were lysed, protein extracted and separated by gel electrophoresis. After western transfer, membranes were probed with mouse anti-N-Myc antibody (1:1000) (Santa Cruz Biotech, CA, USA) or rabbit anti-JMJD1A antibody (1:500) (Abcam, Cambridge, MA, USA), followed by horseradish peroxidase-conjugated anti-mouse (1:10000) or anti-rabbit (1:20000) antiserum (Santa Cruz Biotech). Protein bands were visualized with SuperSignal (Pierce, Rockford, IL, USA). The membranes were lastly re-probed with an anti-actin antibody (Sigma, St Louis, MO, USA) as loading controls.
In general terms: Real-time PCR tracks product formation cycle by cycle.

Assay [1] concerns BE(2)-C cells. Briefly: Cell migration (wound healing) assay with Ibidi Culture Inserts. The class given is cell-based, human. The settings on record: 67μM DMOG vs vehicle control. The procedure: Ibidi Culture Inserts (DKSH, Sydney, Australia) were placed in the center of 6 well plates. BE(2)-C cells were added into the wells outside the inserts. Sixteen hours later, the inserts were removed to create “wounds”. Photos of the “wounds” were taken under microscope, and the areas of the remaining “wounds” were measured and analyzed with Image J software (National Institutes of Health, USA).

Assay [2] deals with BE(2)-C cells. In words: Matrigel cell invasion assay. In kind it is cell-based, human. The settings on record: 67μM DMOG for 20 hours, invasion quantified 22 hours later, vs vehicle control. How it is done:
BE(2)-C cells were transfected with siRNA or treated with JMJD1A inhibitors for 20 hours, and then detached and added onto BD Falcon Cell Culture Inserts coated with Matrigel inside BD BioCoat Matrigel Invasion Chambers (Becton Dickinson, Bedford, MA, USA). Cells invaded through Matrigel to the bottom side of the inserts were stained with toluidine blue, photographed under microscope and quantified.

Assay [3] relates to BE(2)-C cells. Briefly: Cell proliferation, Alamar blue assay, BE(2)-C. The class given is cell-based, human. The settings on record: range of doses of DMOG, 72 hours. The procedure:
Cell proliferation was examined with Alamar blue assays. Briefly, cells were plated into 96 well plates, transfected with various siRNAs or treated with different dosages of DMOG. Seventy-two hours later, cells were incubated with Alamar blue (Invitrogen) for 5 hours, and plates were then read on a micro-plate reader at 570/595 nm. Results were calculated according to the optical density absorbance units and expressed as percentage changes in cell numbers.
In general terms: The colour change of resazurin is a common sign of viable cells or microbes.

In another assay the target is T1, JMJD2C (Homo sapiens, UniProt Q9H3R0).
T1 sequence (Q9H3R0 1-1056): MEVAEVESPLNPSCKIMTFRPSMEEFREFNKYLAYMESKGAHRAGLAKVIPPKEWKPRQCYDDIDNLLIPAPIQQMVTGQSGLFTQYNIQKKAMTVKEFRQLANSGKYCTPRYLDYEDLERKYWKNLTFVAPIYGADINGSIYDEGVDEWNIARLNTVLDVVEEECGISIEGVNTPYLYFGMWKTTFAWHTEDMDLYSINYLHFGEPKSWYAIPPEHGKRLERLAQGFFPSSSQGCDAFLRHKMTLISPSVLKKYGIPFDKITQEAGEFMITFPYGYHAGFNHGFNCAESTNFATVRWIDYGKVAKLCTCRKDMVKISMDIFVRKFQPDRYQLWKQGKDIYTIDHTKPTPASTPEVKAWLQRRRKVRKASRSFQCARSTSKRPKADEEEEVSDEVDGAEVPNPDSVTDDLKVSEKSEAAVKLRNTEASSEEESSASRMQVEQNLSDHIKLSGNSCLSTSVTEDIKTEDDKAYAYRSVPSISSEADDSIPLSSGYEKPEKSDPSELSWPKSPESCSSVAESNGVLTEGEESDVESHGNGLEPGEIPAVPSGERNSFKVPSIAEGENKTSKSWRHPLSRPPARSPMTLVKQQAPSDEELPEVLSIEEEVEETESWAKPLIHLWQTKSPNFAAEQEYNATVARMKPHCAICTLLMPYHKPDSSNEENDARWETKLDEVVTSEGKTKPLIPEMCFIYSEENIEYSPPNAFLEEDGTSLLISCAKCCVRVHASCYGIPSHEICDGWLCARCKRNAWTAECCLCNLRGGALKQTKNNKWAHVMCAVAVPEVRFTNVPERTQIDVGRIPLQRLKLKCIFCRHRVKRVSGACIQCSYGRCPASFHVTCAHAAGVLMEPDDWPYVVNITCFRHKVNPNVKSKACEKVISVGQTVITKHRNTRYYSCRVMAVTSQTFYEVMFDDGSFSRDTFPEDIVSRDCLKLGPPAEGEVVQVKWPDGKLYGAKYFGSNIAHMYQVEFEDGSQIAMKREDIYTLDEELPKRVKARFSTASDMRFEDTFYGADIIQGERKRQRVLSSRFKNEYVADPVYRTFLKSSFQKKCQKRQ
In words: Histone demethylase inhibition assay, JMJD2C. The class given is biochemical. The settings on record: in vitro; compared with JMJD1A.

A further assay concerns the target JARID1A (Homo sapiens, UniProt P29375). Briefly: Formaldehyde dehydrogenase-coupled assay, JARID1A. In kind it is biochemical. The settings on record: in vitro; compared with JMJD1A.
A further assay has as its target T2, JMJD2A (Homo sapiens, UniProt O75164).
T2 sequence (O75164 1-1064): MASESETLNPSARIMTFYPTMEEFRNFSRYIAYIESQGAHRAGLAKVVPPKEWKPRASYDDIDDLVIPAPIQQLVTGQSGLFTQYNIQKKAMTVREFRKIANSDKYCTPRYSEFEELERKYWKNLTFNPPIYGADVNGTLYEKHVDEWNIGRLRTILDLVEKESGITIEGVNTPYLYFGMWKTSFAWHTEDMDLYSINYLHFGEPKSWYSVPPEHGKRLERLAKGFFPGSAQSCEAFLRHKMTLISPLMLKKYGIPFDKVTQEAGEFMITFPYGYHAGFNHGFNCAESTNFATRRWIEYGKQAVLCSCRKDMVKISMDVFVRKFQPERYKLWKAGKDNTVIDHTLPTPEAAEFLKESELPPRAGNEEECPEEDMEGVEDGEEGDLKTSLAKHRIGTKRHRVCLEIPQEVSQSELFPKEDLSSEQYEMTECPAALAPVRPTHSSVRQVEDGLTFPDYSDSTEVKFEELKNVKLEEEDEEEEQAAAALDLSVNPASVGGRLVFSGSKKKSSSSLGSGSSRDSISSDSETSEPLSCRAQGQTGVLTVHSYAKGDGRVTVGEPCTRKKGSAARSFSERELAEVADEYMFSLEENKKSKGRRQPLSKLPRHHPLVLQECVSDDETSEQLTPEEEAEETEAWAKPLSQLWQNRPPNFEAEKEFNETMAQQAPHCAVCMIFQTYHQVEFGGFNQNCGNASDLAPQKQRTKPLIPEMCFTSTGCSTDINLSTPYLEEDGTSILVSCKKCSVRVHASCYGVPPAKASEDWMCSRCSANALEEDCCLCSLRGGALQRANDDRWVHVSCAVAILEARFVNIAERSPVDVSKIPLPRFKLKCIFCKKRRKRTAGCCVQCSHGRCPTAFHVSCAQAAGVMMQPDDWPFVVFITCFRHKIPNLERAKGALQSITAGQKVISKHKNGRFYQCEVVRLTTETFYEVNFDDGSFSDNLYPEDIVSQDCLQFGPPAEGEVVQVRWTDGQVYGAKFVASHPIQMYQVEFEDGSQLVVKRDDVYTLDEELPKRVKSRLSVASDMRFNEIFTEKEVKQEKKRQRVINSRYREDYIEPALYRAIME
Briefly: Histone demethylase inhibition assay, JMJD2A. The class given is biochemical. The settings on record: in vitro; compared with JMJD1A.

The structures appear in SMILES notation.

Chain of JARID1A (P29375 whole entry): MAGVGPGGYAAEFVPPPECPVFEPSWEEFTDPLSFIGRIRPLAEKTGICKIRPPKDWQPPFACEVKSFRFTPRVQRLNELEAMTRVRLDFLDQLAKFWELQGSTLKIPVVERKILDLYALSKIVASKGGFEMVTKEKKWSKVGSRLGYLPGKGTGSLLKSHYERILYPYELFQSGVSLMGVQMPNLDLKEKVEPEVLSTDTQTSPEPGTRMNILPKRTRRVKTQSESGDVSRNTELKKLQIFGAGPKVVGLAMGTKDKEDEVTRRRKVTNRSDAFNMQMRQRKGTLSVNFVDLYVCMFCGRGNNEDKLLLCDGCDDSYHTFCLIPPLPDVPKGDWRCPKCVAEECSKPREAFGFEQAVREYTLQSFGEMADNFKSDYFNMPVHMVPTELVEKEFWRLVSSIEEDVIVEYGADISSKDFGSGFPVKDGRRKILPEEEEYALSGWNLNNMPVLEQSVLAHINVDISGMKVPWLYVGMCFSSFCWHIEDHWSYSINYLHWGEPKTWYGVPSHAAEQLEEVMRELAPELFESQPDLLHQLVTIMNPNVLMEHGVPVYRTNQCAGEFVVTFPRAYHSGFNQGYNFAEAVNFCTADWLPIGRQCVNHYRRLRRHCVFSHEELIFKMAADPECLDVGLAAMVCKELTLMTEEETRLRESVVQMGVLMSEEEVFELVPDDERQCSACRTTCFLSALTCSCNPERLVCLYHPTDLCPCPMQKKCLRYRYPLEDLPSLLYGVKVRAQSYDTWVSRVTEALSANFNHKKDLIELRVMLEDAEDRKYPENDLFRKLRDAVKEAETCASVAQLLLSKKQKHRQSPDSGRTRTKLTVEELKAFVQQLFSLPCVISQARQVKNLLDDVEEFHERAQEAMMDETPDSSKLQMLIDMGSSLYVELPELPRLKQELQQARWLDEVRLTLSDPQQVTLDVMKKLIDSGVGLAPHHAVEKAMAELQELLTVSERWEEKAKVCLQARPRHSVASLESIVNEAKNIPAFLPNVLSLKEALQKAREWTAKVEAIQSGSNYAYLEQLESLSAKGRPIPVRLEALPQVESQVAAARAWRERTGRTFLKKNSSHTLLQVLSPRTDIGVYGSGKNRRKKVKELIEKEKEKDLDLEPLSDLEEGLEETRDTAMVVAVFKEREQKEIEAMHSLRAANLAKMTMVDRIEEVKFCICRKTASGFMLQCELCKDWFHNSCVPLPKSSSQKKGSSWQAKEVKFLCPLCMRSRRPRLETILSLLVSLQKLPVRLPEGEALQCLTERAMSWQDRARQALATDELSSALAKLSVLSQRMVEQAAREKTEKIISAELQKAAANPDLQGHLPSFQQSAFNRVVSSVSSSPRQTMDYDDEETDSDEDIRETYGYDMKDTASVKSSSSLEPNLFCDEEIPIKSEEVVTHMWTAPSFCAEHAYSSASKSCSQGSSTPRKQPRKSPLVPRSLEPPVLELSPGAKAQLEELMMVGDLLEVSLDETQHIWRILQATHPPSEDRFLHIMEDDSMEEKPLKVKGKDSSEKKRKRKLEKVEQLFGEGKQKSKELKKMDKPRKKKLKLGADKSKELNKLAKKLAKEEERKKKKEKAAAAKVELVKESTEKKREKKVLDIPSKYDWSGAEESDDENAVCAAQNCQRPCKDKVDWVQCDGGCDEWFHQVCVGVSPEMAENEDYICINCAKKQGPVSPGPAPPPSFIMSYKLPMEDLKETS

For `COC(=O)CNC(=O)C(=O)OC` [DMOG], the MALAT1 gene expression result in the assay on MALAT1 is “reduced”. Further, the “Increase in area of remaining wounds” value in the assay on BE(2)-C cells [1] (32 hours after removal of inserts) is reported as “approximately 47%”; in the assay on BE(2)-C cells [1] (48 hours after removal of inserts) it was about 895%. The “Reduction of cell invasion through Matrigel” value in the assay with BE(2)-C cells [2] was “approximately 52%”. Moreover, the “Cell proliferation (viable cells, Alamar blue)” value in the assay on BE(2)-C cells [3] was “no effect”.

With `O=C(O)CNC(=O)C(=O)O` [NOG, N-oxalylglycine], the “Inhibition of other histone demethylases (JMJD2C), concentration in words” value on JMJD2C is “much higher concentrations”. In addition, on JARID1A, the “Inhibition of other histone demethylases (JARID1A), concentration in words” value was “much higher concentrations”. In addition, the “Inhibition of other histone demethylases (JMJD2A), concentration in words” value at JMJD2A is given as “much higher concentrations”.

(Values after paper PMC4039110, “The histone demethylase JMJD1A induces cell migration and invasion by up-regulating the expression of the long noncoding RNA MALAT1” (Oncotarget, 2014).)
